Activity calls are given as the source filed them.
Experiments:
Large T antigen = Large T antigen (Simian virus 40, UniProt P03070); type: functional, Betapolyomavirus macacae;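 note: Confirmatory-stage PubChem screen for compounds that inhibit SV40 T antigen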
[1] = biological target: T1, Heat shock factor protein 1 (Mus musculus, UniProt P38532); test: inhibition of MG132-induced HSE-luciferase signal, confirmation, cell-based, NIH3T3, luminescence, dose retest (AID 2382); type: functional;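 note: NIH3T3 fibroblasts with HSF1-driven luciferase reporter stressed by proteasome inhibitor MG132; luminescence from HSF1-driven luciferase expression after 8 hours of MG132 stress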
T1 sequence (P38532 whole entry): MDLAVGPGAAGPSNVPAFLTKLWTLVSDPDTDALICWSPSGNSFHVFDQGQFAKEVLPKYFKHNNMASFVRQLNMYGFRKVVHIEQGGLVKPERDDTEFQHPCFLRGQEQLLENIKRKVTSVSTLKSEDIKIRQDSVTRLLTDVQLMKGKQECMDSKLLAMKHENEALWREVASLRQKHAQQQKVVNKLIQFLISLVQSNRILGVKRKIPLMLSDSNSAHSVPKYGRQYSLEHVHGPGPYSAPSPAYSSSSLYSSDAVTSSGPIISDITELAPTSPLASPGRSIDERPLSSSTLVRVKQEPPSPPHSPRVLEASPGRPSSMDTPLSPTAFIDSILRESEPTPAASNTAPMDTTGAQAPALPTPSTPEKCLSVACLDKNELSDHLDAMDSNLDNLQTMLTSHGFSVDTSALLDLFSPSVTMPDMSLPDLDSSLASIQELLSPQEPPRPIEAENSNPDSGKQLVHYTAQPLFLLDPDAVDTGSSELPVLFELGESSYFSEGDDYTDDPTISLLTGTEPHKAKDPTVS

BJ [2] = test: cytotoxicity toward BJ-TERT-LT-ST fibroblasts, dose response, cell-based, RAS-independent, luminescence (AID 1935); type: functional; conditions: Homo sapiens;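 note: BJ fibroblasts immortalized with TERT plus LT and ST oncogenes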
BJ [3] = test: cytotoxicity toward BJ-TERT fibroblasts, dose response, cell-based, RAS-independent, luminescence (AID 1933); type: functional; conditions: Homo sapiens
BJ [4] = test: cells; type: functional, cell-based; conditions: Homo sapiens
[5] = cytotoxicity toward DRD oncogenic fibroblasts, dose response, cell-based, non-viral oncogenic, luminescence (AID 1934); type: functional; conditions: Homo sapiens
[6] = biological target: T2, Rac GTPase-activating protein 1 (Homo sapiens, UniProt Q9H0H5); test: MgcRacGAP GTPase-activating activity inhibitors, confirmation, biochemical, ADP Hunter fluorescence, primary and confirmatory (AID 624330); type: functional
T2 sequence (Q9H0H5 whole entry): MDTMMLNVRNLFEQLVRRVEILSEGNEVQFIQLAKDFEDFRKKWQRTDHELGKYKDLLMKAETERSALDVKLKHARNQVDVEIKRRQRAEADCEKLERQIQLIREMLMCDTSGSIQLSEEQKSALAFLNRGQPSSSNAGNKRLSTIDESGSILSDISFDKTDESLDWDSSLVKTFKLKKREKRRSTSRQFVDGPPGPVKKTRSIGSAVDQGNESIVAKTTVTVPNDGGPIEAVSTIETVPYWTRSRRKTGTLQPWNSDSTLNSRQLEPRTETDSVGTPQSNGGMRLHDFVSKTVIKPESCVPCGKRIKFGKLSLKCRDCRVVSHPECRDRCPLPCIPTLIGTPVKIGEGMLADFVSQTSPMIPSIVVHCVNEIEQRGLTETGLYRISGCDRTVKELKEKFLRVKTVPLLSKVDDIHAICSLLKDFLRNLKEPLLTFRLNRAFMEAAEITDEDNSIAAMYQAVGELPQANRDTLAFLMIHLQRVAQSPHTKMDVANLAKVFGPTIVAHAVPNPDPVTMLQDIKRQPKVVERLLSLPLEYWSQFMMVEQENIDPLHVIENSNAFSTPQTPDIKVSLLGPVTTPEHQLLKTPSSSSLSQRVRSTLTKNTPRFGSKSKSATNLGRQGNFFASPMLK

Nonstructural protein 1 = Nonstructural protein 1 (Influenza A virus, UniProt Q194T2); type: functional, Influenza A virus (A/California/07/2009(H1N1))
[7] = Shn3 3'UTR reporter inhibitors, dose response, cell-based, Clone20 osteoblasts, firefly luciferase, cherry-picked (AID 624132); type: functional;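 note: firefly luciferase luminescence from reporter carrying the Shn3 3'UTR in osteoblasts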
[8] = control 3'UTR Renilla luciferase suppression, dose response, counter-screen for Shn3 inhibitor project, cell-based, Clone20-Shn3RL, cherry-picked (AID 624133); type: functional
Protein RecA = biological target: T3, Protein RecA (Mycobacterium tuberculosis, UniProt P9WHJ3); test: Fluorescence Cell-Free Homogeneous Dose Retest to Identify Inhibitors of RecA-Intein Splicing Activity. [Related pubchem assays (depositor defined):AID2097, AID2223, AID489010, AID492950]; type: functional
T3 sequence (P9WHJ3 whole entry): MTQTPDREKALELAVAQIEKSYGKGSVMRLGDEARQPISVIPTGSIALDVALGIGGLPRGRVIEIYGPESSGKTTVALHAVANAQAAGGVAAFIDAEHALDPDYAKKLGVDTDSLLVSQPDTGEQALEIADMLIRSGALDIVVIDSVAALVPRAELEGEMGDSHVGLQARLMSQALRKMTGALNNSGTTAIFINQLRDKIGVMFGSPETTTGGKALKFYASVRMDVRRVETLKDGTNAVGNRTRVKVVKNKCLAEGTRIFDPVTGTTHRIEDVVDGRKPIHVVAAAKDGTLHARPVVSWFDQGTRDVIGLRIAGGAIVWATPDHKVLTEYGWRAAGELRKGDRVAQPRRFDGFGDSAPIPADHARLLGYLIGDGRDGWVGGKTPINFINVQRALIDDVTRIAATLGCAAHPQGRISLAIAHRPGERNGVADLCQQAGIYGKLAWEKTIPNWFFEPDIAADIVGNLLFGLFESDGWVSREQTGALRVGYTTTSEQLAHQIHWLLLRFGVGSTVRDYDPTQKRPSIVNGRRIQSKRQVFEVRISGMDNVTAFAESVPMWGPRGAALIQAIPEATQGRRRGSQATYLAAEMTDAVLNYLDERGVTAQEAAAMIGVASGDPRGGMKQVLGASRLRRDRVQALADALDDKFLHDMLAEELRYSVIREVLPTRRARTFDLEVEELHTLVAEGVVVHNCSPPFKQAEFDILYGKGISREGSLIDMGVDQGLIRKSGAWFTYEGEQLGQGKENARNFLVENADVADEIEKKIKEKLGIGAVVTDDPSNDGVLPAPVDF

Leucine aminopeptidase = biological target: T4, Leucine aminopeptidase (Plasmodium falciparum 3D7, UniProt Q8IL11); test: P. falciparum M17LAP inhibitors, primary screen, biochemical, fluorogenic H-Leu-NHMec substrate, 1536-well (AID 1619); type: functional
T4 sequence (Q8IL11 whole entry): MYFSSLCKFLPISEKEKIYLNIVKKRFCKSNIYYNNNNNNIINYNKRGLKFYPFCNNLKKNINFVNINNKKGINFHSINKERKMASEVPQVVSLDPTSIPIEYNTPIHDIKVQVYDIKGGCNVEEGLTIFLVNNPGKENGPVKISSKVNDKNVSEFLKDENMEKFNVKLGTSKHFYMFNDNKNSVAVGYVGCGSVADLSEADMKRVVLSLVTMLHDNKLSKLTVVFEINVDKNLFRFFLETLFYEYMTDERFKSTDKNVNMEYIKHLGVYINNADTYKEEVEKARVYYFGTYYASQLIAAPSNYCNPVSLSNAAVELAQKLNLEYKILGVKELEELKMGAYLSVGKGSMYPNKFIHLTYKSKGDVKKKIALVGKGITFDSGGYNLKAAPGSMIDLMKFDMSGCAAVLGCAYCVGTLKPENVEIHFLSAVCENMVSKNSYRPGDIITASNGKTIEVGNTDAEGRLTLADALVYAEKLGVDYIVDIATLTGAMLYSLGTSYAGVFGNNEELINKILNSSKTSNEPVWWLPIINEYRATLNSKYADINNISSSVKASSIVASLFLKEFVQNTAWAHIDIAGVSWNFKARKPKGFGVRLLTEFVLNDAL

[9] = biological target: FAD-linked sulfhydryl oxidase ALR (Homo sapiens, UniProt P55789); test: inhibitors of human ALR sulfhydryl oxidase, dose response, biochemical, H2O2 detection, luminescence, cherry-pick (AID 493248)
cells = type: functional
[10] = THP-1 cell cytotoxicity, dose response, cytotoxicity control for non-replicating M. tuberculosis project (AID 489025); type: functional
[11] = HEp-2 cell cytotoxicity, dose response, cytotoxicity control for RSV inhibitor project, HTS (AID 2410); type: functional; conditions: human respiratory syncytial virus
Protein skinhead-1 = biological target: T5, Protein skinhead-1 (Caenorhabditis elegans, UniProt P34707); type: functional
T5 sequence (P34707 whole entry): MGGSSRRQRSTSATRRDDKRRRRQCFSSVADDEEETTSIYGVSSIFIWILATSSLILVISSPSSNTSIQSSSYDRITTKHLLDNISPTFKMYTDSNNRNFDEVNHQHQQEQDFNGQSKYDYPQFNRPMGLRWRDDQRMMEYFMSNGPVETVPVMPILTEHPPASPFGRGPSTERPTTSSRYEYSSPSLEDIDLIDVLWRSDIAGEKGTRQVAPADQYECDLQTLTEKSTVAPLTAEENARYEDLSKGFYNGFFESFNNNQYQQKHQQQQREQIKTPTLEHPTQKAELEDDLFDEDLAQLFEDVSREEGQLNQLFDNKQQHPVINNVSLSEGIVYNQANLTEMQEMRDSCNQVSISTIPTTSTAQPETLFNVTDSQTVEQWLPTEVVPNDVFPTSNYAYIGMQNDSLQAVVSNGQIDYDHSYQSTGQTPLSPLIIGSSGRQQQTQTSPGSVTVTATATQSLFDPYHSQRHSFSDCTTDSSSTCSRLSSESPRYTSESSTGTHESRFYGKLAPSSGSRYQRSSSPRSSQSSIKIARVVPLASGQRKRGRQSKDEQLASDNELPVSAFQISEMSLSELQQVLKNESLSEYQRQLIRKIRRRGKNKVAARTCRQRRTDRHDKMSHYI

[12] = cytotoxicity toward NIH3T3 fibroblasts, dose response, counter-screen, cell-based, ATP luminescence, mouse fibroblasts (AID 2010); type: functional;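 note: cells exposed to compound for about 90 hours before reading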
[13] = inhibitors of intracellular T. cruzi replication, confirmation, NIH3T3 host cells, beta-gal luminescence (AID 2044); type: functional, cell-based;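 note: intracellular parasites grown in NIH/3T3 mouse fibroblasts as host cells; luminescent beta-galactosidase reporter signal from transgenic T. cruzi replicating inside host cells; inhibitors lower the luminescence signal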
[14] = Luminescence Cell-Based Dose Retest to Confirm Inhibitors of Cancer Stem Cells. [Related pubchem assays (depositor defined):AID2717, AID2721]; type: functional; conditions: Homo sapiens

Sequence of Large T antigen (P03070 whole entry): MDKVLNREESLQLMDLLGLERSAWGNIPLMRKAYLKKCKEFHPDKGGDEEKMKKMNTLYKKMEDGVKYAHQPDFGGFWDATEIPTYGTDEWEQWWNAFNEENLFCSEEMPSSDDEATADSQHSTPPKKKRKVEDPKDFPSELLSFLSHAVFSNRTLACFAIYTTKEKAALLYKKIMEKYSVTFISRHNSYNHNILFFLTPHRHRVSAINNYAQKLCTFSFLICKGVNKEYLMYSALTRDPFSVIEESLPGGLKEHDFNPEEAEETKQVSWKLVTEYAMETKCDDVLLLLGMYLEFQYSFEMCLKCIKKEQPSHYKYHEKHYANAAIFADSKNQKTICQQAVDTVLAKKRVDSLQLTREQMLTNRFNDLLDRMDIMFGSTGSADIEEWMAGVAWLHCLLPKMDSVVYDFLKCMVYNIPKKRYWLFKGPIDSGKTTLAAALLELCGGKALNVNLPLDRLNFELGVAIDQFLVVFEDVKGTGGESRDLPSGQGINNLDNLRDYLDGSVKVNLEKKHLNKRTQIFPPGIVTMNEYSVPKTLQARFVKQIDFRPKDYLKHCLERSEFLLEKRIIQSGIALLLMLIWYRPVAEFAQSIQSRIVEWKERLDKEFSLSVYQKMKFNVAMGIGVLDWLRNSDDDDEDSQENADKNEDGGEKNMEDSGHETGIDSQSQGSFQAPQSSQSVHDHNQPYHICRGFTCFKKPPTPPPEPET
Sequence of Nonstructural protein 1 (Q194T2 whole entry): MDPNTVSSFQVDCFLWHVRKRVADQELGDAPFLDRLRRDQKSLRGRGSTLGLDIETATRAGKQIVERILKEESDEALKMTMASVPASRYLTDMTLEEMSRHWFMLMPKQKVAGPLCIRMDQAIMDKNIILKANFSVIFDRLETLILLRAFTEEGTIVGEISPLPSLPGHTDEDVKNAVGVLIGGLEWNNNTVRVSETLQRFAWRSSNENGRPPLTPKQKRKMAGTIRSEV
Sequence of FAD-linked sulfhydryl oxidase ALR (P55789 whole entry): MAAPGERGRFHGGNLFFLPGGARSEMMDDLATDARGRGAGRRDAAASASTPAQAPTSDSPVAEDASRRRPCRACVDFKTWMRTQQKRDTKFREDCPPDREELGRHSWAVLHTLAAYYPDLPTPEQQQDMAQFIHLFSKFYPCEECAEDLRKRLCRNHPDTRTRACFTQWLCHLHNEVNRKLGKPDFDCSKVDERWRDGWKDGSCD

Cc1cc(-c2ccc(N=Nc3c(S(=O)(=O)O)cc4cc(S(=O)(=O)O)cc(N)c4c3O)c(C)c2)ccc1N=Nc1c(S(=O)(=O)O)cc2cc(S(=O)(=O)O)cc(N)c2c1O
IC50 (Large T antigen): 2.38 µM (active)

COc1ccc(S(=O)(=O)N2CCCCCC2)cc1C(=O)OCC(=O)NC(C)(C)C
EC50 [1]: > 195 µM (not active)

CC1=CC(C)(C)N2C(=O)C(=O)c3cc(OC(=O)c4ccco4)cc1c32
EC50 (BJ [2]): 11.3 µM (inconclusive) | EC50 (BJ [3]): > 150 µM (not active) | EC50 (BJ [4]): 11.6 µM (active) | EC50 [5]: 11.2 µM (inconclusive)

COc1cc2c(cc1N=C(S)Nc1ccccc1C)oc1ccccc12
IC50 [6]: 83.9 µM (active) | IC50 (Large T antigen): 56.4 µM (active)

Cc1cc(C)cc(-n2c(C)cc(C(=S)N3CCOCC3)c2C)c1
IC50 (Nonstructural protein 1): 95.6 µM (active)

Cc1nc2cc(N=NN(C)C)ccc2[nH]1
IC50 (Large T antigen): > 100 µM (active)

CN(C)S(=O)(=O)c1cccc(/N=c2\scc(-c3ccc4c(c3)NC(=O)CO4)n2CC2CCCO2)c1 (centres undefined)
AC50 [7]: 14 µM (active) | AC50 [8]: 22.5 µM (active)

CC(C)[C@H](NC(=O)Nc1ccc(Oc2ccccc2)cc1)C(=O)O
EC50 (Protein RecA): > 380 µM (inactive) | IC50 (Leucine aminopeptidase): 15.7 µM (active)

CCN1C(=O)CC(N2CCC(Nc3ccc(OC)cc3)CC2)C1=O (centres undefined)
IC50 (Large T antigen): 57.7 µM (active) | AC50 [9]: 2.09 µM (active)

O=C(Nc1ccc(Nc2ccccc2)cc1)N1CCOCC1
IC50 (Large T antigen): 7.43 µM (active)

Cc1ccc(NC(=O)COc2ccc(-n3ccnc3)cc2)cc1Cl
IC50 (cells): 25.5 µM (active) | CC50 [10]: > 40 µM (active)

O=C(Nc1nccs1)c1ccc(-c2ccc(Cl)cc2)o1
CC50 [11]: > 50 µM (active) | IC50 (cells): 25.6 µM (active) | IC50 (Protein skinhead-1): > 100 µM (inactive) | CC50 [10]: > 40 µM (active)

Cc1ccc2[nH]c3nc(NN)nnc3c2c1
IC50 (Nonstructural protein 1): 13.5 µM (active)

Cc1oc(-c2cc3c(cc2Cl)OCO3)nc1CN1CCCC1c1ccc(F)cc1 (centres undefined)
EC50 [1]: > 195 µM (not active)

CCOc1ccc(CC(=O)N2CCC3(CC2)NCCc2[nH]cnc23)cc1
EC50 [1]: > 195 µM (not active)

COc1ccc(N2C(=O)c3ccccc3NC2c2ccc(OC)c(Cn3cc([N+](=O)[O-])cn3)c2)cc1 (centres undefined)
EC50 [1]: > 195 µM (not active)

CCOc1ccc2c(c1)-c1c(ssc1=S)C(C)(C)N2C
IC50 (Nonstructural protein 1): 12.8 µM (active)

COc1ccc2[nH]c(C)c(CCN(Cc3cccs3)C(S)=Nc3ccccc3)c2c1
EC50 [12]: > 60 µM (not active) | EC50 [13]: 2.82 µM (active) | IC50 (Nonstructural protein 1): > 100 µM (active)

Cc1ccc(S(=O)(=O)NC2=C(N3CCN(Cc4ccccc4)CC3)C(=O)c3ccccc3C2=O)cc1
IC50 (Nonstructural protein 1): 22.4 µM (active)

Cc1ccc(C(=O)NCC(=O)NCC(=O)OCC(=O)c2ccc(F)cc2)cc1
EC50 [1]: > 195 µM (not active)

CCCS(=O)(=O)c1c(S(=O)(=O)CCC)c2c(C)cccn2c1C(=O)N/N=C/c1cc(O)cc(O)c1
EC50 (BJ [2]): 18.1 µM (active) | EC50 (BJ [3]): 23.5 µM (active) | AC50 [14]: 2.52 µM (active) | EC50 (BJ [4]): 20.2 µM (active) | EC50 [5]: 27 µM (active)

O=C(c1ccccc1)c1ccc(-n2ccnc2)c([N+](=O)[O-])c1
EC50 (BJ [2]): > 150 µM (inconclusive) | EC50 (BJ [3]): > 150 µM (not active) | EC50 (BJ [4]): > 150 µM (not active) | EC50 [5]: > 150 µM (not active)

Cc1ccc(OCC(=O)NCCNC(=O)c2ccco2)cc1C
EC50 [1]: > 195 µM (not active)

Cc1ncc([N+](=O)[O-])n1CC(=O)Nc1ccc(F)cc1
EC50 [1]: 12.3 µM (active)

Reference: ChEMBL document CHEMBL1201862, “PubChem BioAssay data set” (2004)
